Experiments:
[1] = system: S24 GBMSC astrocytoma cells; test: In vivo calcium imaging with MPLSM: intercellular calcium waves (frequency, synchronicity of calcium peaks) in tumor cells; set-up: species or system mouse
Experimental: The following small molecule calcium indicators were used: for GFP-transfected tumor cells: 2 mM Rhod-2AM (life technologies, R-1244); for RFP-transfected: 2 mM Fluo-4AM (life technologies, F-14201). The dissolved dyes were applied to the brain surface for 45 min. Regions with a similar tumor cell density were used. […] Pharmacological gap junction inhibition was achieved by superfusion with the gap junction inhibitor CBX (100 μM; control substance: extracellular saline; n=3 mice per group).
Two genetically-encoded calcium indicators were lentivirally transduced to GBMSCs: (A) The Lck-GCaMP3 sensor in the rrl-CAG-IGC3 vector (CAG promoter to control expression of DsRed and the Ca^2+ sensor that monitors near-membrane changes in [Ca^2+]i). (B) The radiometric calcium sensor Twitch-3 was used to determine intracellular calcium concentrations by Förster Resonance Energy Transfer (FRET) as known in the art.
Tumor cells or non-malignant brain astrocytes were marked manually by the use of the ROI Manager of ImageJ. Mean gray values were measured over time. […] Local maxima of calcium signals were detected by the findpeaks function (signal package, Octave-Forge). Thus, the number of calcium peaks of each cell (N) could be determined and the frequency (f) was calculated. The frequency was standardized for the cell number of each region to ensure comparability. Synchronous cells, the number of synchronous communications, and the time point of the synchronous firing were determined. Due to the fact that the images were recorded via a line mode, which leads to a latency of signal detection, the analysis was done in a window of 2 frames around each peak. This allowed to assess the synchronicity S (S∈R^+∪{0}), which was defined as the fraction of the whole number of synchronous cells (N_Syn) divided by the number of calcium peaks for the given cell (N_Ca). In case the cells were not active, a synchronicity of zero was allotted.
For example, in a system with a synchronicity of 1, a firing cell interacts with a second one. […]

S24 GBMSCs = test: Intratumoral microinjection of sulforhodamine 101 (SR101): dye distribution in TM-connected tumor cell network; assay type: in vivo, mouse; details: SR101 100 μM co-injected with 100 μM CBX, 120 min after injection; FIG. 7G
Experimental: For intratumoral microinjection of sulforhodamine 101 (SR101, Molecular Probes, S-359), 50 nl of 100 μM SR101 (with or without 100 μM CBX, Sigma-Aldrich, C4790) were injected with a very thin glass pipette into tumor regions of similar cellular densities, >90 days after tumor injection.
For in vivo imaging data, TM numbers, branches/TM and connections/cell were counted manually, and TM lengths were measured manually in the slice mode in Imaris. For quantification and analysis of tumor cells/TMs before and after radiotherapy, cells were counted in the same regions before radiation or sham radiation, and at different time points afterwards. Cells without a TM-connection were defined as “non-connected” and cells with at least one TM-connection(s) as “connected”. To analyze the number of TMs before and after irradiation, the TMs of individual, identical cells were counted at both time points. Ratios were calculated to determine the relative changes of cell and TM numbers over time. For the measurement of tumor volumes in BT088 tumors before and after radiotherapy, two regions were analyzed per animal using the surface function of Imaris. The mean speed of tumor cell invasion in S24 shControl vs. shGAP-43 tumors was determined by analysis of three consecutive imaging time points within a 24 hour time interval in vivo. […] They were connected to tracks and the mean track speed was calculated. […]

normal brain astrocytes = test: In vivo calcium imaging with MPLSM: calcium waves in co-registered normal brain astrocytes; set-up: species or system mouse; details: superfusion with suramin 100 μM (ATP receptor blockade); FIG. 8D
Experimental: The following small molecule calcium indicators were used: for GFP-transfected tumor cells: 2 mM Rhod-2AM (life technologies, R-1244); for RFP-transfected: 2 mM Fluo-4AM (life technologies, F-14201). The dissolved dyes were applied to the brain surface for 45 min. Regions with a similar tumor cell density were used. For the combination of radiotherapy and calcium imaging, mice were pretreated with Fluo-4AM and imaged after awaking with low isoflurane (0.5%). One hour after radiotherapy, the same regions were imaged again to detect changes in calcium activity. Pharmacological gap junction inhibition was achieved by superfusion with the gap junction inhibitor CBX (100 μM; control substance: extracellular saline; n=3 mice per group). […]
Tumor cells or non-malignant brain astrocytes were marked manually by the use of the ROI Manager of ImageJ. Mean gray values were measured over time. […] Local maxima of calcium signals were detected by the findpeaks function (signal package, Octave-Forge). Thus, the number of calcium peaks of each cell (N) could be determined and the frequency (f) was calculated. […] Synchronous cells, the number of synchronous communications, and the time point of the synchronous firing were determined. Due to the fact that the images were recorded via a line mode, which leads to a latency of signal detection, the analysis was done in a window of 2 frames around each peak. […]

Q: `CC1(C)[C@@H](OC(=O)CCC(=O)O)CC[C@]2(C)[C@H]3C(=O)C=C4[C@@H]5C[C@@](C)(C(=O)O)CC[C@]5(C)CC[C@@]4(C)[C@]3(C)CC[C@@H]12` [CBX, carbenoxolone] was tested. Which “frequency and synchronicity of ICWs in GBMSC astrocytoma cells” value ([1]; brain superfusion with 100 μM carbenoxolone (CBX) vs. extracellular saline, S24, FIG. 7E) did it give?
A: reduced

Q: What about the “distribution of sulforhodamine 101 in the TM-connected tumor cell network” value (S24 GBMSCs) of the same molecule?
A: inhibited

Q: With `NCCOB(c1ccccc1)c1ccccc1` [2-APB, 2-aminoethoxydiphenyl borate] as the molecule, how does the “ICWs between astrocytoma cells” value ([1]; superfusion with 2-APB 100 μM (inhibitor of IP3 receptors), FIG. 8D) read?
A: reduced ICWs

Q: Which “ICWs in malignant astrocytic cells” value ([1]; superfusion with suramin 100 μM (ATP receptor blockade), FIG. 8D) does the source give for `Cc1ccc(C(=O)Nc2ccc(S(=O)(=O)O)c3cc(S(=O)(=O)O)cc(S(=O)(=O)O)c23)cc1NC(=O)c1cccc(NC(=O)Nc2cccc(C(=O)Nc3cc(C(=O)Nc4ccc(S(=O)(=O)O)c5cc(S(=O)(=O)O)cc(S(=O)(=O)O)c45)ccc3C)c2)c1` [suramin] here?
A: reduced ICWs

Q: What about the “ICWs in normal astrocytic cells” value (normal brain astrocytes) of the same molecule?
A: reduced ICWs

— US12029789B2, “Agent for use in the treatment of glioma” (DC EUROPA LIMITED, priority 2015, dated 2024)
